These results are taken from ChEMBL document CHEMBL1909560, “Design and synthesis of a library of chemokine antagonists” (Bioorg Med Chem Lett, 2011).

Structures are written as SMILES. pIC50: −log10 of the molar value.

In general, pIC50 refers to the IC50 on a negative log10 scale, so that one unit is a factor of ten.

One test concerns the target T1, C-C chemokine receptor type 1 (Homo sapiens, UniProt P32246).
T1 sequence (P32246 whole entry): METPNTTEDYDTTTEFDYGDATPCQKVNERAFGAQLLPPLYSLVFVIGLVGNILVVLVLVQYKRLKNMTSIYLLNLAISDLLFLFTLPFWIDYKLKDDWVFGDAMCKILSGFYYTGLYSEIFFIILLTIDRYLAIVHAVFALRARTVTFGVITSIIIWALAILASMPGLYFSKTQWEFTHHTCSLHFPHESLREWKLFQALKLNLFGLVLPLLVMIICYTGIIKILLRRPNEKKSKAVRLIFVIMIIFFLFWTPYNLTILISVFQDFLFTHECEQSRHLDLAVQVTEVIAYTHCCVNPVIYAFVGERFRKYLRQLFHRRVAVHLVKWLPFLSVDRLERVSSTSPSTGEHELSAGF
In words: Displacement of [125I]-MIP-1alpha 125I]-MCP1 from CCR1 expressed in CHO-K1 cells by scintillation proximity assay. The test is classed as cell-based.
As for `Cc1noc(C)c1S(=O)(=O)NCCCN1CCC(O)(c2ccc(Cl)cc2)CC1`, the pIC50 is 6.58. The same measure, in the same setting: as for `O=C(NCCCCN1CCC(Oc2ccc(F)cc2)C1)NCc1ccc(Br)cc1` (configuration not stated), the figure is 6.41.

For a further test, the target named is C-C chemokine receptor type 2 (Homo sapiens, UniProt P41597). The experiment in a line: Displacement of [125I]-MIP-1alpha 125I]-MCP1 from CCR2 expressed in CHO ducX#98 cells by scintillation proximity assay. The class given is cell-based.
Sequence of C-C chemokine receptor type 2 (P41597 whole entry): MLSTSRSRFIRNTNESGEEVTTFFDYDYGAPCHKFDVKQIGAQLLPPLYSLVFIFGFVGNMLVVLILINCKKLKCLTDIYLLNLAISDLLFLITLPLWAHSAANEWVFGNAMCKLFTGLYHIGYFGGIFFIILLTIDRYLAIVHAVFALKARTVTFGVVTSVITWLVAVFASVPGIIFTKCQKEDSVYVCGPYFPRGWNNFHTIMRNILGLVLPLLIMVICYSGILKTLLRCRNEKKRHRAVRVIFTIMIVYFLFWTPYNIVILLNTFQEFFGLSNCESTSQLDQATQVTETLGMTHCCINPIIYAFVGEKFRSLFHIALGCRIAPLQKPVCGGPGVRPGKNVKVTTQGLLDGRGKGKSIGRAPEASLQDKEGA
With `O=C(NCCCN1CCC(c2ccc(F)cc2)CC1)C1=Cc2cc(Br)ccc2OCC1`, the negative-log IC50 (pIC50) was 6.03. Still for that read-out and setting: with `O=C(NCCCCN1CCC(Cc2ccc(F)cc2)CC1)Nc1ccc(OC(F)(F)F)cc1` the figure was 5.73.

A further test deals with T2, C-C chemokine receptor type 3 (Homo sapiens, UniProt P51677).
T2 sequence (P51677 whole entry): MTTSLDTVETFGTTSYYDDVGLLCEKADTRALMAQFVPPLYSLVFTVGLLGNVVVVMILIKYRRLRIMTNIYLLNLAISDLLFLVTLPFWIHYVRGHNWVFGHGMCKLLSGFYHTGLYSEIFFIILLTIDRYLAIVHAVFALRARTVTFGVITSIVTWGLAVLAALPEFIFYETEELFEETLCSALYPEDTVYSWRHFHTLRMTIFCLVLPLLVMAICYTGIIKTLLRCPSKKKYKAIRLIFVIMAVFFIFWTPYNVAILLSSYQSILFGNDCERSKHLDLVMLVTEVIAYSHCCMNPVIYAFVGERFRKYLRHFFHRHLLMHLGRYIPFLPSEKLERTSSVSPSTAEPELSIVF
The experiment in a line: Displacement of [125I]-eotaxin from CCR3 expressed in RBL-2H3 cells by scintillation proximity assay. The test is classed as cell-based. For orientation: Loss of bound radioactivity is the signal in a displacement assay; it reports binding, not function.
`O=C(NCCCN1CCC(c2ccc(F)cc2)CC1)C1=Cc2cc(Br)ccc2OCC1` had a negative logarithm of the IC50 (pIC50) of 6.00.

Turning to `COc1ccc(OC)c(S(=O)(=O)N2CCC(CN3CCN(Cc4ccc(F)cc4)CC3)CC2)c1`, the pIC50 was 7.19.

Regarding `COc1ccc(Cl)cc1NC(=O)NCCCCN(C)Cc1ccc(F)cc1`, the pIC50 is 7.09. The same measure, in the same setting: with `O=C(NCCCCN1CCC(Oc2ccc(F)cc2)C1)Nc1ccc(F)c(F)c1` (configuration not stated) the figure was 7.12; with `COc1ccc(OC)c(S(=O)(=O)N2CCC(CN3CCC(Cc4ccc(F)cc4)CC3)CC2)c1`, 5.92.

For the next test, the target named is C-C chemokine receptor type 5 (Homo sapiens, UniProt P51681). The experiment in a line: Displacement of [125I]-MIP-1- alpha from CCR5 expressed in CHO K1 cells by scintillation proximity assay. The class given is cell-based.
Sequence of C-C chemokine receptor type 5 (P51681 whole entry): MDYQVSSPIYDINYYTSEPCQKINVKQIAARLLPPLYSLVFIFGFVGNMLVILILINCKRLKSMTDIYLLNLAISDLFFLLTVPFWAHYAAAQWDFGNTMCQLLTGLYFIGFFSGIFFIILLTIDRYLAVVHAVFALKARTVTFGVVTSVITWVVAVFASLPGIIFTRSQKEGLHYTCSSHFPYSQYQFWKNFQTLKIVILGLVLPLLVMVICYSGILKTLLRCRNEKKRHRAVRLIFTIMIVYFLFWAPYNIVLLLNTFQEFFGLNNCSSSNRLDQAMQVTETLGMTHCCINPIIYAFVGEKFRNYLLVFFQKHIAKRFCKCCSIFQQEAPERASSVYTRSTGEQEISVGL
`N#Cc1cccc(C(=O)NCCCN2CCC(COCc3ccc(F)cc3)CC2)c1` gave a pIC50 of 6.00. In turn, `COc1ccc(OC)c(S(=O)(=O)N2CCC(CN3CCC(Cc4ccc(F)cc4)CC3)CC2)c1` gave a pIC50 of 5.55. This pIC50 lies 0.45 log units lower than the previous one.

`COc1ccc(C)cc1S(=O)(=O)N1CCC(CN2CCC(c3ccc(F)cc3)CC2)CC1` gave a pIC50 of 5.89. Compared with the last compound, the pIC50 is 0.34 log units higher.
